Assays:
[1] = system: human breast cancer cell line BT549; assay: ATP assay (CellTiter-Glo, ATP production) in transfected BT549 cells with or without paclitaxel; assay type: cell-based; settings: 72 hours
Experimental: (§1) Periostin-highly-expressing human breast cancer cell line BT549 was cultured in RPMI 1640 with 10% FBS and 1% penicillin/streptomycin. The BT549 cells are a triple-negative breast cancer cell line, which is negative for estrogen receptor, progesterone receptor, and human epidermal growth factor receptor 2 (HER2).
(§2) The BT549 cells were transfected with the human exon 17-skipping antisense oligonucleotide or the human exon 21-skipping antisense oligonucleotide as described in Example 1. The cells were subsequently seeded in an amount of 5×10^3 cells/well on a 96-well plate. Similarly, the BT549 cells were transfected with the control antisense oligonucleotide and seeded on a 96-well plate as the control group. On the day after seeding, paclitaxel was added at a final concentration of 10 nM to the wells. After 72 hours of culture, cell proliferation (number of viable cells) and ATP-producing capacity (ATP quantification) were evaluated. The number of viable cells was measured using the CellTiter 96 AQueous One Solution Cell Proliferation Assay (trade name, Promega, #G3582) (MTS assay). The amount of ATP was measured using the CellTiter-Glo Luminescent Cell Viability Assay (trade name, Promega, #G7570) (ATP assay). The Tukey-Kramer test was used for intergroup comparison.

[2] = system: downstream molecules of TGF-β-induced signaling; assay: Quantitative PCR of downstream molecules of TGF-β-induced signaling in hRPTEC transfected with antisense oligonucleotide; assay type: cell-based, human; settings: vs TGF-β (+) Control AS, FIG. 15
Experimental: Human renal proximal tubular epithelial cells (hRPTEC, ATCC No. PCS-400-010) were cultured in a renal epithelial cell basal medium (REBM, Cambrex Bio Science Inc.) with 10% fetal bovine serum (FBS) and 1% penicillin/streptomycin. The cells were transfected with the human exon 17-skipping antisense oligonucleotide (Pn exon 17 AS) or the control antisense oligonucleotide (Control AS) as described in Example 1. At 24 hours after transfection, the medium was replaced by a serum-free medium. At 24 hours thereafter, human TGF-β1 (PeproTech) was added to the medium, and culture was continued for additional 24 hours. After cell culture, total RNA was extracted from the cells and subjected to cDNA synthesis (see Reference Example 1). The resulting cDNA was subjected to quantitative PCR using the primers shown below to measure the expression level of the splice variant Pn1 (containing exons 17 and 21, see FIG. 1) (n=3 per group) and the mRNA expression levels of the downstream molecules of TGF-β-induced signaling (αSMA, Snail 1, TNFα, CTGF, vimentin) (n=4 per group). Statistical analysis was performed by analysis of variance and Tukey-Kramer adjustment using the JMP statistical software package.

[3] = system: human breast cancer cell line BT549; assay: MTS assay (number of viable cells) in transfected BT549 cells with or without paclitaxel; assay type: cell-based; settings: 72 hours
Experimental: as §1, §2

[4] = system: Luciferase-expressing mouse breast cancer (4T1-Luc) cells; assay: Pulmonary metastasis (lung luciferase activity) in nude mice after tail vein injection of transfected 4T1-Luc cells; assay type: in vivo; settings: 5×10^5 transfected 4T1-Luc cells via tail vein, 5 days after injection, vs control antisense, FIG. 16
Experimental: Luciferase-expressing mouse breast cancer (4T1-Luc) cells were cultured in DMEM with 10% FBS and 1% penicillin/streptomycin. A morpholino antisense oligonucleotide designed to induce skipping of exon 17 of a mouse periostin gene was purchased from Funakoshi Co., Ltd. The nucleotide sequence of the antisense oligonucleotide is as follows.
The mouse exon 17-skipping antisense oligonucleotide targets the region of positions 21118 to 21142 of the mouse periostin gene represented by SEQ ID NO: 2.
The 4T1-Luc cells were transfected with the mouse exon 17-skipping antisense oligonucleotide or the control antisense oligonucleotide (SEQ ID NO: 6) as described in Example 1. After 2 days of culture, the cells were detached, and cell suspension was prepared. The cell suspension (containing 5×10^5 4T1-Luc cells per mouse) was injected via the tail vein to nude mice (BALB/c-nu, female, 8 to 10 weeks old) (n=3 per group). At 5 days after injection, the lung was excised from each mouse under anesthesia and homogenized. The homogenate was subjected to the measurement of luciferase activity using the Dual-Luciferase Reporter Assay System (Promega, #E1910). The Mann Whitney test (MWU) was used for comparison between the two groups.

[5] = BT549, no paclitaxel, vs control antisense transfected cells, FIG. 18A
[6] = BT549, paclitaxel 10 nM, vs control antisense transfected cells, FIG. 18B
[7] = BT549, paclitaxel 10 nM, vs control antisense transfected cells, FIG. 17B

Substance | ATP production [1, 5] | ATP production [1, 6] | CTGF mRNA expression, TGF-β induction [2] | Snail 1 mRNA expression, TGF-β induction [2] | TNFα mRNA expression, TGF-β induction [2] | Vimentin mRNA expression, TGF-β induction [2] | αSMA mRNA expression, TGF-β induction [2] | cell proliferation (number of viable cells, MTS) [3, 7] | ATP production ([1]; BT549, no paclitaxel, vs exon 17-skipping antisense transfected cells, FIG. 18A) | ATP production ([1]; BT549, paclitaxel 10 nM, vs exon 17-skipping antisense transfected cells, FIG. 18B) | cell proliferation (number of viable cells, MTS) ([3]; BT549, no paclitaxel, vs exon 17-skipping and control antisense transfected cells, FIG. 17A) | luciferase activity in lung homogenate (pulmonary metastasis) [4]
exon 17-skipping antisense oligonucleotide: Morpholino antisense oligonucleotide 5′-CCATGTATAACATTGATTTTTACCTTCAGT-3′ designed to induce skipping of exon 17 of a human periostin gene (all phosphorodiamidate morpholino (PMO)) | significant reduction | significant reduction | significantly suppressed | significantly suppressed | significantly suppressed | significantly suppressed | significantly suppressed | significant reduction |  |  |  | 
exon 21-skipping antisense oligonucleotide: Morpholino antisense oligonucleotide 5′-TTGTTGTCCTTTTACTAACCTCCCT-3′ designed to induce skipping of exon 21 of a human periostin gene (all phosphorodiamidate morpholino (PMO)) | significant reduction | significant reduction |  |  |  |  |  | significant reduction | significant reduction | significant reduction | significant reduction | 
mouse exon 17-skipping antisense oligonucleotide: Morpholino antisense oligonucleotide 5′-TGCTGAAAACATAGAAAGTGGAGCA-3′ designed to induce skipping of exon 17 of a mouse periostin gene (all phosphorodiamidate morpholino (PMO)) |  |  |  |  |  |  |  |  |  |  |  | very low
